Measured values published in patent US20180303853A1, “COMPOSITIONS AND METHODS FOR TREATING BACTERIAL INFECTIONS USING CEFTAROLINE” (priority 2017, published 2018).

Key:
Morganella morganii = experiment: Phase 3 cSSSI studies, clinical cure by infecting pathogen; format: in vivo; details: ME patients
Description: (§1) A total of 1396 adults with clinically documented complicated skin and skin structure infections (cSSSI) were enrolled in two randomized, multi-center, multinational, double-blind, studies comparing 600 mg ceftaroline fosamil administered intravenously over 1 hour every 12 hours to vancomycin plus aztreonam [1 g vancomycin administered intravenously over 1 hour followed by 1 g aztreonam administered intravenously over 1 hour every 12 hours]. Patients with cSSSI (deep/extensive cellulitis, a major abscess, a wound infection [surgical or traumatic], infected insect bites, burns or ulcers, lower extremity infection in patients with diabetes mellitus or peripheral vascular disease), were enrolled in the studies. Treatment duration was […] days. A switch to oral therapy was not allowed. The Modified Intent-to-Treat (MITT) population included all patients who received any amount of study drug according to their randomized treatment group.
(§2) The primary efficacy endpoint was clinical response at the Test of Cure (TOC) visit in the co-primary CE and MITT populations (Table 2). […] In a subgroup analysis (CE population), the comparative clinical cure rates between the ceftaroline group and the vancomycin plus aztreonam group were not affected by age, gender, race, ethnicity, or weight.

Streptococcus pyogenes = experiment: as above; format: in vivo; details: ME patients
Description: as §1, §2

Klebsiella pneumoniae [1] = experiment: as above; format: in vivo; details: ME patients
Description: as §1, §2

Klebsiella oxytoca = experiment: as above; format: in vivo; details: ME patients
Description: as §1, §2

Escherichia coli [2] = experiment: as above; format: in vivo; details: ME patients
Description: as §1, §2

Streptococcus agalactiae = experiment: as above; format: in vivo; details: ME patients
Description: as §1, §2

Staphylococcus aureus [3] = experiment: as above; format: in vivo; details: ME patients
Description: as §1, §2

[4] = tested on: Streptococcus dysgalactiae; experiment: as above; format: in vivo; details: ME patients
Description: as §1, §2

[5] = tested on: MSSA (methicillin-susceptible); experiment: Integrated Phase 3 CABP studies, clinical cure by infecting pathogen; format: in vivo, Staphylococcus aureus; details: ME patients
Description: (§3) In both treatment groups of CABP Study 1, two doses of oral clarithromycin (500 mg q12 h), were administered as adjunctive therapy starting on Study Day 1. No adjunctive macrolide therapy was used in CABP Study 2. Patients with new or progressive pulmonary infiltrate(s) on chest radiography and clinical signs and symptoms consistent with CABP with the need for hospitalization and IV therapy were enrolled in the studies. Treatment duration was 5 to 7 days. A switch to oral therapy was not allowed. The Modified Intent-to-Treat Efficacy (MITTE) population, included all patients who received any amount of study drug according to their randomized, treatment group and were in PORT (Pneumonia Outcomes Research Team) Risk Class III or IV.
(§4) The primary efficacy endpoint was the clinical response at the Test of Cure (TOC) visit in the co-primary Ce and MITTE populations (Table 4).

[6] = tested on: MDRSP (multidrug-resistant); format: in vivo, Streptococcus pneumoniae; details: CABP, ME patients
Description: as §3, §4

[7] = tested on: Community-Acquired Bacterial Pneumonia (CABP); experiment: Two Phase 3 studies in CABP, clinical cure at TOC (single and integrated/combined); format: in vivo, human; details: for Treatment Difference (2-sided 95% CI): vs Ceftriaxone
Description: as §3, §4

[8] = tested on: complicated skin and skin structure infections (cSSSI); experiment: Two Phase 3 studies in cSSSI, clinical cure at TOC; format: in vivo, human; details: for Treatment Difference (2-sided 95% CI): vs Vancomycin/Aztreonam
Description: as §1, §2

[9] = tested on: MRSA (methicillin-resistant); format: in vivo, Staphylococcus aureus; details: cSSSI, ME patients
Description: as §1, §2

Haemophilus influenzae = experiment: Integrated Phase 3 CABP studies, clinical cure by infecting pathogen; format: in vivo; details: ME patients
Description: as §3, §4

Klebsiella pneumoniae [10] = experiment: as above; format: in vivo; details: ME patients
Description: as §3, §4

Escherichia coli [11] = experiment: as above; format: in vivo; details: ME patients
Description: as §3, §4

Streptococcus pneumoniae = experiment: as above; format: in vivo; details: ME patients
Description: as §3, §4

Staphylococcus aureus [12] = experiment: as above; format: in vivo; details: ME patients
Description: as §3, §4

[13] = Aqueous solubility of ceftaroline fosamil
[14] = tested on: Streptococcus anginosus group; experiment: Phase 3 cSSSI studies, clinical cure by infecting pathogen; format: in vivo, S. anginosus, S. intermedius, and S. constellatus; details: ME patients
Description: as §1, §2

[15] = Four pooled controlled comparative Phase 3 clinical studies (two cSSSI, two CABP), safety; details: pooled Phase 3 studies
Description: Ceftaroline fosamil was evaluated in four controlled comparative Phase 3 clinical studies (two in cSSSI and two in CABP).

[16] = tested on: complicated skin and skin structure infections (cSSSI); experiment: Two Phase 3 studies in cSSSI, clinical cure at TOC; format: in vivo, human; details: Integrated Studies, CE population, 5 to 14 days of therapy
[17] = Pharmacokinetics of ceftaroline after IV infusion of ceftaroline fosamil in adults with normal renal function
[18] = Excretion after single IV dose of radiolabeled ceftaroline fosamil in healthy male adults; format: in vivo, human; details: single 600 mg IV dose of radiolabeled ceftaroline fosamil
Description: Following administration of a single 600 mg IV dose of radiolabeled ceftaroline fosamil to healthy male adults, approximately 87% of radioactivity was recovered in urine and 6% in feces. The majority of the radioactivity (˜90%) was recovered within 48 hours. Of the radioactivity recovered in urine, approximately 64% was excreted as ceftaroline and approximately 2% as ceftaroline-M-1.

[19] = tested on: CYP1A1, CYP1A2, CYP2A6, CYP2B6, CYP2C8, CYP2C9, CYP2C19, CYP2D6, CYP2E1 and CYP3A4; experiment: Cytochrome P450 inhibition in human liver microsomes; format: in vitro ADME; details: human liver microsomes
[20] = tested on: MSSA (methicillin-susceptible); experiment: Phase 3 cSSSI studies, clinical cure by infecting pathogen; format: in vivo, Staphylococcus aureus; details: ME patients
Description: as §1, §2

[21] = tested on: CYP1A2, CYP2B6, CYP2C8, CYP2C9, CYP2CI9, or CYP3A4/5; experiment: CYP induction in human hepatocytes; format: in vitro ADME; details: human hepatocytes

CCO/N=C(\C(=O)N[C@@H]1C(=O)N2C(C(=O)[O-])=C(Sc3nc(-c4cc[n+](C)cc4)cs3)CS[C@H]12)c1nsc(NP(=O)(O)O)n1 [Ceftaroline fosamil, (6R,7R)-7-{(2Z)-2-(ethoxyimino)-2-[5-(phosphonoamino)-1,2,4-thiadiazol-3-yl]acetamido}-3-{[4-(1-methylpyridin-1-ium-4-yl)-1,3-thiazol-2-yl]sulfanyl}-8-oxo-5-thia-1-azabicyclo[4.2.0]oct-2-ene-2-carboxylate]
Clinical cure rate by infecting pathogen (Morganella morganii): 11/12 (91.7%) | Clinical cure rate by infecting pathogen (Streptococcus pyogenes): 56/56 (100%) | Clinical cure rate by infecting pathogen (Klebsiella pneumoniae [1]): 17/18 (94.4%) | Clinical cure rate by infecting pathogen (Klebsiella oxytoca): 10/12 (83.3%) | Clinical cure rate by infecting pathogen (Escherichia coli [2]): 20/21 (95.2%) | Clinical cure rate by infecting pathogen (Streptococcus agalactiae): 21/22 (95.5%) | Clinical cure rate by infecting pathogen (Staphylococcus aureus [3]): 352/378 (93.1%) | Clinical cure rate by infecting pathogen [4]: 13/13 (100%) | Clinical cure rate by infecting pathogen [5]: 18/25 (72.0%) | Clinical cure rate by infecting pathogen [6]: 4/4 (100%) | Clinical cure rate at TOC ([7]; CABP Study 1, CE population): 194/224 (86.6%) | Clinical cure rate at TOC ([7]; CABP Study 1, MITTE population): 244/291 (83.8%) | Clinical cure rate at TOC ([7]; CABP Study 2, CE population): 193/235 (82.1%) | Clinical cure rate at TOC ([7]; CABP Study 2, MITTE population): 235/289 (81.3%) | Clinical cure rate at TOC ([7]; Integrated Studies, CE population, 5 to 7 days of therapy): 387/459 (84.3%) | Clinical cure rate at TOC ([7]; Integrated Studies, MITTE population): 479/580 (82.6%) | Treatment Difference (2-sided 95% CI) ([7]; CABP Study 1, CE): 8.4 (1.4, 15.4) | Treatment Difference (2-sided 95% CI) ([7]; CABP Study 1, MITTE): 6.2 (−0.2, 12.6) | Treatment Difference (2-sided 95% CI) ([7]; CABP Study 2, CE): 4.9 (−2.5, 12.5) | Treatment Difference (2-sided 95% CI) ([7]; CABP Study 2, MITTE): 5.9 (−1.0, 12.7) | Treatment Difference (2-sided 95% CI) ([7]; Integrated Studies, CE): 6.7 (1.6, 11.8) | Treatment Difference (2-sided 95% CI) ([7]; Integrated Studies, MITTE): 6.0 (1.4, 10.7) | Clinical cure rate at TOC ([8]; Integrated Studies, MITT population): 595/693 (85.9) % | Clinical cure rate at TOC ([8]; cSSSI Study 1, CE population): 288/316 (91.1) % | Clinical cure rate at TOC ([8]; cSSSI Study 1, MITT population): 304/351 (86.6) % | Clinical cure rate at TOC ([8]; cSSSI Study 2, CE population): 271/294 (92.2) % | Clinical cure rate at TOC ([8]; cSSSI Study 2, MITT population): 291/342 (85.1) % | Treatment Difference (2-sided 95% CI) ([8]; Integrated Studies, CE): −1.1 (−4.2, 2.0) | Treatment Difference (2-sided 95% CI) ([8]; Integrated Studies, MITT): 0.3 (−3.4, 4.0) | Treatment Difference (2-sided 95% CI) ([8]; cSSSI Study 1, CE): −2.2 (−6.6, 2.1) | Treatment Difference (2-sided 95% CI) ([8]; cSSSI Study 1, MITT): 1.0 (−4.2, 6.2) | Clinical cure rate by infecting pathogen [9]: 142/152 (93.4%) | Clinical cure rate by infecting pathogen (Haemophilus influenzae): 15/18 (83.3%) | Clinical cure rate by infecting pathogen (Klebsiella pneumoniae [10]): 13/13 (100%) | Clinical cure rate by infecting pathogen (Escherichia coli [11]): 10/12 (83.3%) | Clinical cure rate by infecting pathogen (Streptococcus pneumoniae): 54/63 (85.7%) | Clinical cure rate by infecting pathogen (Staphylococcus aureus [12]): 18/25 (72.0%) | aqueous solubility [13]: 8-30 mg per ml | Clinical cure rate by infecting pathogen [14]: 12/13 (92.3%) | Adverse reaction: Constipation [15]: 2% | Adverse reaction: Diarrhea [15]: 5% | Adverse reaction: Headache [15]: 4% | Adverse reaction: Hypokalemia [15]: 2% | Adverse reaction: Increased transaminases [15]: 2% | Adverse reaction: Insomnia [15]: 3% | Adverse reaction: Nausea [15]: 4% | Adverse reaction: Phlebitis [15]: 2% | Adverse reaction: Pruritus [15]: 2% | Adverse reaction: Rash [15]: 3% | Adverse reaction: Vomiting [15]: 2% | Serious adverse events [15]: 8% | discontinuation due to hypersensitivity (most common adverse event leading to discontinuation) [15]: 0.3% | treatment discontinuations due to adverse events [15]: 4% | Clinical cure rate at TOC [16]: 559/610 (91.6) % | accumulation following multiple IV infusions ([17]; 600 mg every 8 or 12 hours for up to 14 days, normal renal function): No appreciable accumulation | conversion of prodrug in plasma ([17]; appeared to be mediated by a phosphatase enzyme): rapidly converted into bioactive ceftaroline | radioactivity recovered in feces [18]: ~6% | radioactivity recovered in urine [18]: approximately 87% | radioactivity recovered within 48 hours [18]: ~90% | inhibition of major cytochrome P450 isoenzymes [19]: neither ceftaroline fosamil nor ceftaroline inhibits | Clinical cure rate by infecting pathogen [20]: 212/228 (93.0%) | induction of CYP isoenzymes [21]: not inducers
